# From US9271995B2, “Agent for ameliorating brain hypofunction” (The University of Tokyo, priority 2008, dated 2016)
# How the values were obtained:
# Type in all cases: in vivo
# [1] = tested on: old mice (male C57BL6/Njcl); experiment: Open field test; conditions: ManNAc 5 mg/ml in tap water ad libitum
# Procedure: (§1) • 1) Object and place recognition task experiments were performed on male C57BL6/Njcl mice in three groups. Outline of the experiments is shown in FIG. 1. • Old control group: Old mice (reared from 47 to 66 weeks of age, n=10) were allowed to drink tap water ad libitum. • Old ManNAc recipient group: Old mice (reared from 47 to 66 weeks of age, n=10) were allowed to drink tap water with ManNAc (5 mg/ml) dissolved therein ad libitum. • Young control group: Young mice (reared from 8 to 18 weeks of age, n=10) were allowed to drink tap water ad libitum. • 2) Experimental procedures: An open field test was performed to examine the tendency toward anxiety and locomotor activity, and this was followed by place recognition task and object recognition task in accordance with conventional methods (see FIG. 2). • 3) Experimental results (FIGS. 3 and 4)
# Open field test (FIG. 3): Moving distance in an unfamiliar planar space was compared between the old mice and the young mice.
# [2] = tested on: old mice (male C57BL6/Njcl); experiment: Place recognition task; conditions: ManNAc 5 mg/ml in tap water ad libitum, paired t-test, p<0.05
# Procedure: as §1
# (§2) When ManNAc was administered to the old mice (FIG. 4C), the exploratory behavior times for the new place (paired t-test, p<0.05) and the new object (paired t-test, p<0.001) normalized in all tasks; a capability of recognition memory equivalent to that of the young mice was shown.
# [3] = tested on: middle-aged mice; experiment: Telemeter monitoring of heart rate, body temperature and locomotor activity; conditions: administration of ManNAc
# Description: (§3) Mice are awake during active time in the dark phase and conversely cease their activities and have a sleep in the light phase. It is known that in aged mice, the wake-sleep rhythm is deranged to the extent of lighter sleep in the light phase and decreased activities during wake time in the dark phase. It is also known that the aging-related derangement of wake and sleep is related to hypothalamic activity and accompanied by elevated body temperatures and increased heart rates. Because these symptoms are similar to those in human patients in their middle age to senescence who complain of dissatisfaction with sleep, they serve as an appropriate model for examining the influences on sleep.
# (§4) Middle-aged mice [three reared from 43 to 66 weeks of age under light-dark cycle conditions (12-hour light phase-12-hour dark phase)] were allowed to drink ManNAc solution (5 mg/ml tap water) ad libitum. During 1 week before and after the free access to the solution, […], body temperature, and locomotor activity were monitored over time using a telemeter. Also analyzed were electroencephalograms recorded during wake and sleep times in both the ManNAc non-ingestion period and the free-access period. To measure electroencephalograms and electromyograms, a mouse electroencephalogram transmitter (F20EET, Data Sciences) was implanted in each animal under anesthesia (pentobarbital, 30 mg/kg, i.v.), and electroencephalograms, electromyograms, body temperature, and locomotor activity were continuously recorded using ART (Data Sciences Company). The electroencephalograms thus obtained were analyzed using NeuroScore (Data Sciences Company), and the sleep events were classified into REM sleep and slow wave sleep. The lengths of each sleep stage were totaled and compared among the mice before and after administration and young mice.
# [4] = tested on: middle-aged mice; experiment: Sleep analysis by electroencephalograms and electromyograms (aging-related sleep disorders)
# Description: as §3, §4
# [5] = tested on: old mice (male C57BL6/Njcl); experiment: Object recognition task; conditions: ManNAc 5 mg/ml in tap water ad libitum, paired t-test, p<0.001
# Procedure: as §1, §2
# [6] = middle-aged mice receiving ManNAc, began to be observed on day 2 after administration
structure (smiles),measurement,setting,value
"CC(=O)N[C@@H]1C(O)O[C@H](CO)[C@@H](O)[C@@H]1O (stereo partly drawn) [ManNAc, N-acetyl-D-mannosamine]",total motor activity,[1],without influencing total motor activity
same,rise in the tendency toward anxiety (time of stay in the central portion),[1]; vs old control,"tended to decrease slightly, but the difference was statistically insignificant"
same,exploratory behavior time for the new place,[2],normalized
same,change in heart rate due to behavioral change (difference between the light and dark phases),[3],became evident
same,difference in locomotor activity between the light and dark phases,[3],increased
same,body temperature,[3]; non-active period,declined
same,day after the start of administration on which the effect on sleep begins to be evident,"[4]; extension of REM sleep time, sleep-wake rhythm",2 days
same,REM sleep,[4]; [6],increased
same,slow wave sleep,[4]; [6],decreased
same,wake time,[4]; [6],remarkably increased
same,"Wake, daily percentage","[4]; middle-aged mice, 4 days after administration, ManNAc 5 mg/ml tap water ad libitum (before administration 1.8)",2.2%
same,"REM sleep, daily percentage","[4]; middle-aged mice, 4 days after administration, ManNAc 5 mg/ml tap water ad libitum (before administration 5.4)",10.0%
same,"Wake (major), daily percentage","[4]; middle-aged mice, 4 days after administration, ManNAc 5 mg/ml tap water ad libitum (before administration 12.7)",15.3%
same,"Slow wave sleep, daily percentage","[4]; middle-aged mice, 4 days after administration, ManNAc 5 mg/ml tap water ad libitum (before administration 80.0)",72.5%
same,exploratory behavior time for the new object,[5],normalized
